These results are taken from PubChem BioAssay AID330 (DTP/NCI, 2004).

This assay deals with P388 leukemia ip, CD2F1 mice, survival T/C. Nature of the assay: NCI In Vivo Anticancer Drug Screen. Data for tumor model P388 Leukemia (intraperitoneal) in CD2F1 (CDF1) mice. To be noted: endpoint: median survival time, higher = longer survival. A digest of the protocol:
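Mice carrying the transplanted tumor received test compound or vehicle. Survival was recorded in each group, and the value is the treated-group measurement divided by that of the vehicle-treated control group.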

Setting [1] is: dose: 25.0 mg/kg/injection, schedule: Q01DX001 (ip), vehicle: saline.
Setting [2] is: dose: 50.0 mg/kg/injection, schedule: Q01DX009 (ip), vehicle: saline.
The mark [3] stands for this setting: dose: 100.0 mg/kg/injection, schedule: Q01DX009 (ip), vehicle: saline.
Where [4] appears, read: dose: 200.0 mg/kg/injection, schedule: Q01DX009 (ip), vehicle: saline.
Setting [5] is: dose: 50.0 mg/kg/injection, schedule: Q01DX005 (ip), vehicle: saline + Tween-80 + alcohol.
[6] abbreviates: dose: 100.0 mg/kg/injection, schedule: Q01DX005 (ip), vehicle: saline + Tween-80 + alcohol.
The mark [7] stands for this setting: dose: 200.0 mg/kg/injection, schedule: Q01DX005 (ip), vehicle: saline + Tween-80 + alcohol.
The mark [8] stands for this setting: dose: 50.0 mg/kg/injection, schedule: Q01DX005 (ip), vehicle: Klucel (hydroxypropylcellulose) (HPC).
Setting [9] is: dose: 100.0 mg/kg/injection, schedule: Q01DX005 (ip), vehicle: Klucel (hydroxypropylcellulose) (HPC).
[10] abbreviates: dose: 200.0 mg/kg/injection, schedule: Q01DX005 (ip), vehicle: Klucel (hydroxypropylcellulose) (HPC).
Setting [11] is: dose: 50.0 mg/kg/injection, schedule: Q01DX009 (ip), vehicle: saline with Tween-80.
[12] abbreviates: dose: 100.0 mg/kg/injection, schedule: Q01DX009 (ip), vehicle: saline with Tween-80.
Where [13] appears, read: dose: 200.0 mg/kg/injection, schedule: Q01DX009 (ip), vehicle: saline with Tween-80.
The mark [14] stands for this setting: dose: 50.0 mg/kg/injection, schedule: Q01DX005 (ip), vehicle: saline with Tween-80.
Setting [15] is: dose: 100.0 mg/kg/injection, schedule: Q01DX005 (ip), vehicle: saline with Tween-80.
The mark [16] stands for this setting: dose: 200.0 mg/kg/injection, schedule: Q01DX005 (ip), vehicle: saline with Tween-80.

Values joined by “and” are separate entries in the source; they are usually repeats but may differ in a detail not shown here. Equal entries are not always repeated. Inconclusive results and toxic doses are left out.

Turning to `CCCCNC(=O)C1CC2c3cccc4c3c(cn4C)CC2N(C)C1` (stereo not given), the T/C by setting is: under setting [1], 102 % of control; (dose: 50.0 mg/kg/injection, schedule: Q01DX001 (ip), vehicle: saline) 105 % of control.

In the case of `CN(C)CN1CSC(=S)N(CN(C)C)C1`, the T/C was 103 % of control (dose: 50.0 mg/kg/injection, schedule: Q01DX005 (ip), vehicle: distilled water + alcohol); 116 % of control (dose: 100.0 mg/kg/injection, schedule: Q01DX005 (ip), vehicle: distilled water + alcohol); 103 % of control (dose: 200.0 mg/kg/injection, schedule: Q01DX005 (ip), vehicle: distilled water + alcohol).

Consider `CNC1=C(C(=O)c2ccccc2)CCC1`, for which the T/C reads like this: (dose: 6.25 mg/kg/injection, schedule: Q01DX009 (ip), vehicle: saline) 104 % of control; (dose: 12.5 mg/kg/injection, schedule: Q01DX009 (ip), vehicle: saline) 104 % of control; (dose: 25.0 mg/kg/injection, schedule: Q01DX009 (ip), vehicle: saline) 101 % of control; under setting [2], 101 % of control; under setting [3], 104 % of control and 87 % of control and 95 % of control; under setting [4], 124 % of control and 90 % of control and 95 % of control.

Turning to `Nc1[nH]c(=O)[nH]c(=O)c1S(=O)(=O)O`, the T/C (dose: 50.0 mg/kg/injection, schedule: Q01DX009 (ip), vehicle: Klucel (hydroxypropylcellulose) (HPC)) is 95 % of control; the T/C (dose: 100.0 mg/kg/injection, schedule: Q01DX009 (ip), vehicle: Klucel (hydroxypropylcellulose) (HPC)) is 90 % of control; the T/C (dose: 200.0 mg/kg/injection, schedule: Q01DX009 (ip), vehicle: Klucel (hydroxypropylcellulose) (HPC)) is 95 % of control.

With `Clc1ccc2c(c1)CN1Cc3cc(Cl)ccc3C2C1`, the T/C is 92 % of control (dose: 100.0 mg/kg/injection, schedule: Q01DX001 (ip), vehicle: saline with Tween-80) and 90 % of control (dose: 400.0 mg/kg/injection, schedule: Q01DX001 (ip), vehicle: saline with Tween-80).

As to `COc1ccc(C(C)=O)cc1CSC(=S)N1CCSCC1`, the T/C by setting is: (dose: 15.0 mg/kg/injection, schedule: Q01DX005 (ip), vehicle: saline with Tween-80) 104 % of control; (dose: 30.0 mg/kg/injection, schedule: Q01DX005 (ip), vehicle: saline with Tween-80) 99 % of control; (dose: 60.0 mg/kg/injection, schedule: Q01DX005 (ip), vehicle: saline with Tween-80) 90 % of control and 92 % of control; (dose: 240.0 mg/kg/injection, schedule: Q01DX005 (ip), vehicle: saline with Tween-80) 88 % of control.

As for `ON(C=Nc1ccccc1)c1ccccc1`, the T/C runs as follows: under setting [2], 101 % of control; under setting [3], 101 % of control; under setting [4], 97 % of control.

For `Fc1cccc(CSC(=S)Nc2ccc(Cl)c(C(F)(F)F)c2)c1`, the T/C was 98 % of control (dose: 50.0 mg/kg/injection, schedule: Q01DX009 (ip), vehicle: suspension in saline); 93 % of control (dose: 100.0 mg/kg/injection, schedule: Q01DX009 (ip), vehicle: suspension in saline); 98 % of control (dose: 200.0 mg/kg/injection, schedule: Q01DX009 (ip), vehicle: suspension in saline).

`O=C1C2OC2C(O)(CCN(Cc2ccc3c(c2)OCO3)C(=O)C(F)(F)F)C2OC12` (stereo not given): the T/C runs as follows: (dose: 6.25 mg/kg/injection, schedule: Q01DX001 (ip), vehicle: saline) 104 % of control; (dose: 12.5 mg/kg/injection, schedule: Q01DX001 (ip), vehicle: saline) 105 % of control; under setting [1], 106 % of control.

For `O=C1CSC(=S)N1c1ccc(C(F)(F)F)cc1`, the T/C (dose: 25.0 mg/kg/injection, schedule: Q01DX001 (ip), vehicle: Klucel (hydroxypropylcellulose) (HPC)) was 93 % of control; the T/C (dose: 50.0 mg/kg/injection, schedule: Q01DX001 (ip), vehicle: Klucel (hydroxypropylcellulose) (HPC)) was 99 % of control; the T/C (dose: 100.0 mg/kg/injection, schedule: Q01DX001 (ip), vehicle: Klucel (hydroxypropylcellulose) (HPC)) is 110 % of control.

Consider `CCOc1c(N=Nc2ccc(Cl)cc2)c(-c2ccccc2)nn1C(N)=S`, for which the T/C reads like this: under setting [5], 108 % of control; under setting [6], 94 % of control; under setting [7], 99 % of control.

For the molecule `CC(=O)NCc1cc(C)c(CCl)cc1CCl`, the T/C runs as follows: (dose: 3.13 mg/kg/injection, schedule: Q01DX009 (ip), vehicle: distilled water + Tween-80) 103 % of control; (dose: 6.25 mg/kg/injection, schedule: Q01DX009 (ip), vehicle: distilled water + Tween-80) 114 % of control and 117 % of control; (dose: 12.5 mg/kg/injection, schedule: Q01DX009 (ip), vehicle: distilled water + Tween-80) 122 % of control and 123 % of control; (dose: 25.0 mg/kg/injection, schedule: Q01DX009 (ip), vehicle: distilled water + Tween-80) 116 % of control.

Regarding `CC([NH-])C[NH-].O=S(=O)(O)O.[Pt+2]` (stereo not given), the T/C is 154 % of control (dose: 3.12 mg/kg/injection, schedule: Q04DX002 (ip), vehicle: saline); 90 % of control and 118 % of control (dose: 12.5 mg/kg/injection, schedule: Q04DX002 (ip), vehicle: saline).

For the molecule `O=C1c2ccccc2C(O)N1CCc1c[nH]c2ccccc12` (stereo not given), the T/C is 93 % of control under setting [8], 95 % of control under setting [9] and 91 % of control under setting [10].

In the case of `C/C(=C\C(=O)c1cccc(F)c1)N1CCN(c2ccc(F)cc2)CC1`, the T/C is 100 % of control under setting [8], 96 % of control under setting [9] and 100 % of control under setting [10].

Take `CCN(CC)C(=S)C(C)=C(Sc1ccccc1)Sc1ccccc1`: the T/C is, setting by setting: under setting [8], 100 % of control; under setting [9], 99 % of control; under setting [10], 99 % of control.

Regarding `CN(C)P(=O)(N(C)C)N1CCCCCC1`, the T/C by setting is: under setting [11], 102 % of control; under setting [12], 106 % of control; under setting [13], 94 % of control.

Take `CCCCN(Cc1ccccc1)CC(O)CN=Cc1ccc(C=NCC(O)CN(CCCC)Cc2ccccc2)cc1` (stereo not given): the T/C by setting is: under setting [5], 102 % of control; under setting [6], 107 % of control; under setting [7], 98 % of control.

Regarding `O=C1OC(=O)N2CSCC12` (stereo not given), the T/C is 101 % of control under setting [8], 96 % of control under setting [9] and 92 % of control under setting [10].

In the case of `CCn1c2ccc(N)cc2c2c(N)c(-n3cccc3)ccc21`, the T/C runs as follows: under setting [14], 100 % of control; under setting [15], 100 % of control; under setting [16], 100 % of control.

Consider `CCCCN(CCCC)CC1CC(C(C)(C)C)CCC1O` (stereo not given), for which the T/C under setting [8] was 91 % of control and the T/C under setting [9] is 91 % of control.

In the case of `CCCCCCCCCCCCCCCC1C(N)C(=O)N(C)N1C` (stereo not given), the T/C was 86 % of control under setting [11] and 95 % of control under setting [12].

Turning to `NCC(=O)NCC(=O)NC(Cc1ccc(O)cc1)C(=O)O` (stereo not given), the T/C under setting [14] was 101 % of control, the T/C under setting [15] was 96 % of control and the T/C under setting [16] was 104 % of control.

Regarding `CCOc1c(N=Nc2ccc(C)cc2)c(C)nn1C(N)=S`, the T/C runs as follows: (dose: 15.0 mg/kg/injection, schedule: Q01DX005 (ip), vehicle: Klucel + Tween-80) 103 % of control; (dose: 30.0 mg/kg/injection, schedule: Q01DX005 (ip), vehicle: Klucel + Tween-80) 105 % of control.

As to `CCOC(=O)c1ccc(NC(=O)Nc2cccc(O)c2)cc1`, the T/C (dose: 60.0 mg/kg/injection, schedule: Q01DX005 (ip), vehicle: Klucel (hydroxypropylcellulose) (HPC)) was 107 % of control; the T/C (dose: 120.0 mg/kg/injection, schedule: Q01DX005 (ip), vehicle: Klucel (hydroxypropylcellulose) (HPC)) is 104 % of control; the T/C (dose: 240.0 mg/kg/injection, schedule: Q01DX005 (ip), vehicle: Klucel (hydroxypropylcellulose) (HPC)) is 91 % of control.

For `O=[N+]([O-])c1ccccc1SSc1ccccc1[N+](=O)[O-]`, the T/C runs as follows: under setting [12], 95 % of control; under setting [13], 104 % of control; (dose: 400.0 mg/kg/injection, schedule: Q01DX009 (ip), vehicle: saline with Tween-80) 100 % of control.

For `CC(=O)Nc1ccc(OCCOCCOc2ccc(NC(C)=O)cc2)cc1`, the T/C is, setting by setting: under setting [11], 92 % of control; under setting [12], 94 % of control; under setting [13], 91 % of control.
